Assay results taken from patent publication US7635716B2, “Substituted cyclopentanes or cyclopentanones as therapeutic agents” (Allergan, Inc., priority 2005, dated 2009).
Like-named read-outs stand apart in the source and are kept apart here.

What was measured:
Test in all cases: FLIPR calcium signal, HEK-293(EBNA) cells
Assay type in all cases: cell-based
hEP2/Gqs5 = target: T1, hEP2/Gqs5 (Homo sapiens, UniProt P43116)
T1 construct: expressed in transfected cells; host or cells: HEK-293(EBNA) cells
Procedure, shortened: (§1)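 Peak Fluo-4 fluorescence (2 µM dye loading, 45 min) was recorded in HEK-293(EBNA) cells stably expressing each human receptor, in HBSS-HEPES pH 7.4 at 37 °C. Signals were expressed relative to buffer and standard agonist controls: PGE2 (EP2, EP4), PGF2 (FP), carbacyclin (IP). Compounds were tested at 10^−5 M or from 10^−5 to 10^−11 M, in duplicate, n≧3.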

hEP3A/Gqi5 = target: T2, hEP3A/Gqi5 (Homo sapiens, UniProt P43115)
T2 construct: expressed in transfected cells; host or cells: HEK-293(EBNA) cells
T2 sequence (P43115 1-390): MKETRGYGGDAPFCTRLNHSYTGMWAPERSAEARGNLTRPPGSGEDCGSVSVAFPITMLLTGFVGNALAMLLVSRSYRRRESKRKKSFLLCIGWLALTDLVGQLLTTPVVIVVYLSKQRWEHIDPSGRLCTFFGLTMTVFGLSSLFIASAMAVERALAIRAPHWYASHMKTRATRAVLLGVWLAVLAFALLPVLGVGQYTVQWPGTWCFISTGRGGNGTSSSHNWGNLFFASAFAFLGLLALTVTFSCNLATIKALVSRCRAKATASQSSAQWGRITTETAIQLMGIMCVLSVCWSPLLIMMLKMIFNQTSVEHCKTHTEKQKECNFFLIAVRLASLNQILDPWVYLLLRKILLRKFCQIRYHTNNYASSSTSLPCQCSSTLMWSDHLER

hEP4/Gqs5 = target: T3, hEP4/Gqs5 (Homo sapiens, UniProt P35408)
T3 construct: expressed in transfected cells; host or cells: HEK-293(EBNA) cells
Procedure, shortened: as §1

hTP = target: T4, hTP (Homo sapiens, UniProt P21731)
T4 construct: expressed in transfected cells; host or cells: HEK-293(EBNA) cells
T4 sequence (P21731 1-343): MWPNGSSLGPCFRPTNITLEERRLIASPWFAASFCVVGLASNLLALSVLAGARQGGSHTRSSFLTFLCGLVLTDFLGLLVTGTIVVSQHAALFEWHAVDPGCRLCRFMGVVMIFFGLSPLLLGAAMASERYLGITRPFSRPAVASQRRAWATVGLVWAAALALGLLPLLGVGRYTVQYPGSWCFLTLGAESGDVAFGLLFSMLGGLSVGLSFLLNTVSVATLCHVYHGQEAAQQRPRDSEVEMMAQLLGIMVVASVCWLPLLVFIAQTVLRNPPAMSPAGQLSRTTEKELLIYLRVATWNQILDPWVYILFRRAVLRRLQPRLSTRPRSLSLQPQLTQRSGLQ

hEP1 = target: T5, hEP1 (Homo sapiens, UniProt P34995)
T5 construct: expressed in transfected cells; host or cells: HEK-293(EBNA) cells
T5 sequence (P34995 1-402): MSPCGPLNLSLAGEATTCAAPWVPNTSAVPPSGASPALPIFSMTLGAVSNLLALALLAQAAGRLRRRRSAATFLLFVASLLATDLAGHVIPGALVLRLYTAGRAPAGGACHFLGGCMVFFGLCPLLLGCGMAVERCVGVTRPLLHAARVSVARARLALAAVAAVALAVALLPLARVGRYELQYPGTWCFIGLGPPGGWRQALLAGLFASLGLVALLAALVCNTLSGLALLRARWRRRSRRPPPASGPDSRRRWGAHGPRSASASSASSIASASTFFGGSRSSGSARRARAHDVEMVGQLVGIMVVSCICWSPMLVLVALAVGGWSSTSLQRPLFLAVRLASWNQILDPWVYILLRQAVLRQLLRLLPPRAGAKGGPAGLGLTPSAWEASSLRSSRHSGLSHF

[1] = Table 1, first part, triplicate, read-out: functional data (EC50) hEP2
[2] = Table 1, first part, data represents a single experiment, read-out: functional data (EC50) hEP3A*
[3] = Table 1, second part, quantity not given, values match functional data (EC50) of first part, read-out: Other Receptors hEP3
[4] = Table 1, first part, triplicate, read-out: functional data (EC50) hEP4
[5] = Table 1, first part, triplicate, read-out: functional data (EC50) hTP
[6] = Table 1, second part, quantity not given, values match functional data (EC50) of first part, read-out: Other Receptors hTP
[7] = Table 1, first part, triplicate, read-out: functional data (EC50) hEP1
[8] = Table 1, second part, quantity not given, values match functional data (EC50) of first part, read-out: Other Receptors hEP1
[9] = Table 1, second part, read-out: hEP2 flipr EC50
[10] = Table 1, second part, read-out: hEP4 flipr EC50

T1 sequence (P43116 whole entry): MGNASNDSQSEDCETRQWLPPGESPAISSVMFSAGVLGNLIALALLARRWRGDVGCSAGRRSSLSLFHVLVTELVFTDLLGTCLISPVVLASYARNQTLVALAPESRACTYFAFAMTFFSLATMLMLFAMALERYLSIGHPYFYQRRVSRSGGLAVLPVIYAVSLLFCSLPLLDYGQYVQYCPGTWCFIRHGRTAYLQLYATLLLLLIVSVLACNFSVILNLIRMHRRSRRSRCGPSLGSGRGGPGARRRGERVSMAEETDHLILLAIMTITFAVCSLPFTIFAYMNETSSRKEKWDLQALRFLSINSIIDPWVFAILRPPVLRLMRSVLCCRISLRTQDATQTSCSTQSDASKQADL
T3 sequence (P35408 whole entry): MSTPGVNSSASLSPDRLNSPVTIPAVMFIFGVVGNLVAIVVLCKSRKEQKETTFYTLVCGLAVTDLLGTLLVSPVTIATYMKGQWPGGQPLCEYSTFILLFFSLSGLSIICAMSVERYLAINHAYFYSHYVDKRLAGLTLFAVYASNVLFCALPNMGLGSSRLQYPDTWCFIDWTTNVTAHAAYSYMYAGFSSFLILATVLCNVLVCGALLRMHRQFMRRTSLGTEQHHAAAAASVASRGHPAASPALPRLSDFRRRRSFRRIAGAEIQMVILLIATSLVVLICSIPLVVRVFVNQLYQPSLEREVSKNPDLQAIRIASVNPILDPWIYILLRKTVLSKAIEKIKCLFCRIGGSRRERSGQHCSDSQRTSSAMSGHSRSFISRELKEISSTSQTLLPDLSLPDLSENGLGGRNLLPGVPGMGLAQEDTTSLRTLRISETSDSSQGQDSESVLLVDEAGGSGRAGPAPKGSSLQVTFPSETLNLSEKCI

Row | EC50 (hEP2/Gqs5; [1]) | EC50 (hEP3A/Gqi5; [2]) | EC50 (hEP3A/Gqi5; [3]) | EC50 (hEP4/Gqs5; [4]) | EC50 (hTP; [5]) | EC50 (hTP; [6]) | EC50 (hEP1; [7]) | EC50 (hEP1; [8]) | EC50 (hEP2/Gqs5; [9]) | EC50 (hEP4/Gqs5; [10]) | Molecule
1 | 0.123 µM | 3.51 µM | 3.51 µM | 7.21 µM | > 10 µM | > 10 µM | > 10 µM | > 10 µM |  |  | O=C(O)CCCCCC[C@@H]1[C@@H](COc2ccccc2)[C@H](O)C[C@H]1Cl [Example 10, 7-((1R,2S,3R,5R)-5-Chloro-3-hydroxy-2-phenoxymethyl-cyclopentyl)-heptanoic acid]
2 | 0.024 µM | 3.49 µM | 3.49 µM | 0.152 µM | > 10 µM | > 10 µM | > 10 µM | > 10 µM |  |  | O=C(O)CCCCCC[C@@H]1[C@@H](COc2cc(Cl)cc(Cl)c2)[C@H](O)C[C@H]1Cl [Example 14, 7-[(1R,2S,3R,5R)-5-Chloro-2-(3,5-dichloro-phenoxymethyl)-3-hydroxy-cyclopentyl]-heptanoic acid]
3 | 5.15 µM | 18.5 µM |  | > 10 µM | > 10 µM |  | > 10 µM |  | > 10 µM | 0.36 µM | (Z)-7-((1R,2S,3R)-3-Hydroxy-5-oxo-2-phenoxymethyl-cyclopentyl)-hept-5-enoic acid [Example 4]

Further lines, the molecule ahead of its results:

Row | Molecule | EC50 (hEP2/Gqs5; [1]) | EC50 (hEP3A/Gqi5; [2]) | EC50 (hEP3A/Gqi5; [3]) | EC50 (hEP4/Gqs5; [4]) | EC50 (hTP; [5]) | EC50 (hTP; [6]) | EC50 (hEP1; [7]) | EC50 (hEP1; [8]) | EC50 (hEP2/Gqs5; [9]) | EC50 (hEP4/Gqs5; [10])
4 | O=C(O)CCCCCC[C@H]1C(=O)CC[C@@H]1COc1ccccc1 [Example 6, 7-((1R,5S)-2-Oxo-5-phenoxymethyl-cyclopentyl)-heptanoic acid] | 0.731 µM | 3.55 µM | 3.55 µM | 7.88 µM | > 10 µM | > 10 µM |  |  |  | 
5 | O=C(O)CCC/C=C\C[C@@H]1[C@@H](COc2ccccc2)[C@H](O)C[C@H]1Cl [Example 8, (Z)-7-((1R,2S,3R,5R)-5-Chloro-3-hydroxy-2-phenoxymethyl-cyclopentyl)-hept-5-enoic acid] | 0.23 µM | 7.33 µM | 7.33 µM | 3.2 µM | > 10 µM | > 10 µM | > 10 µM | > 10 µM |  | 
6 | O=C(O)CCC/C=C\C[C@@H]1[C@@H](COc2cc(Cl)cc(Cl)c2)[C@H](O)C[C@H]1Cl [Example 12, (Z)-7-[(1R,2S,3R,5R)-5-Chloro-2-(3,5-dichloro-phenoxymethyl)-3-hydroxy-cyclopentyl]-hept-5-enoic acid] | 0.0008 µM | 1.26 µM | 1.26 µM | 0.048 µM | > 10 µM | > 10 µM | > 10 µM | > 10 µM | 0.0008 µM | 0.048 µM
7 | (Z)-7-((1R,5S)-2-Oxo-5-phenoxymethyl-cyclopent-3-enyl)-hept-5-enoic acid [Example 3] | > 10 µM |  | 18.5 µM | 0.36 µM |  | > 10 µM |  | > 10 µM | 5.15 µM | > 10 µM
